The values below are quoted from earlier work in US6184365A, “Anthracycline derivatives having 4-amino-2,4,6-trideoxy-2 fluoro-α-L-talopyranosyl group” (priority 1996, dated 2001).

The subject of series [1] is mouse Leukemia L-1210 cell. As to conditions: in vivo, cited from earlier work.
Series [2] concerns various human cancer cells. As to conditions: in vitro; cited from earlier work.
The conditions of series [3]: earlier derivatives; cited from earlier work.

For the compound `COc1cccc2c1C(=O)c1c(O)c3c(c(O)c1C2=O)C[C@@](O)(C(=O)CO)C[C@@H]3O[C@@H]1O[C@@H](C)[C@H](N)[C@@H](O)[C@H]1F` [compound of the formula (D-b), 7-O-(4-amino-2,4,6-trideoxy-2-fluoro-α-L-mannopyranosyl)adriamycinone], the “antitumor activity against mouse Leukemia L-1210 cell over adriamycin” value in series [1] (low dosages) is “remarkably improved antitumor activity”. Moreover, in series [1], the “antitumor activity against experimental tumors in animals” value is reported as “remarkably high antitumor activity”. Moreover, the “anticancer activity against various human cancer cells compared with adriamycin” value in series [2] was “substantially as high as those of adriamycin”. Further, the “solubility in water” value in series [3] is on record as “soluble in water”.
